# Patent US9802927B2, “Oxadiazine compounds and methods of use thereof” (Denali Therapeutics, Inc., priority 2015, dated 2017)
# Test system: Aβ42
# Assay: In vitro cell screening assay in H4 cells expressing human APP751: Aβ42 by sandwich ELISA
# Format: cell-based
# Conditions: Homo sapiens, compounds 0.003-10 μM, incubated overnight (16-18 h), sandwich ELISA of supernatant
# How it was run: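 Secreted Aβ42 measured by sandwich ELISA, C-terminal-specific capture and 4G8-HRP detection, TMB read at 450 nm, from supernatants of APP751-expressing H4 cells exposed overnight (16-18 h) to 0.003-10 μM compound in Pro293 medium, 0.33% DMSO. Data scaled between DMSO and DAPT controls; EC50 from variable-slope nonlinear regression.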
row,EC50,Compound
1,> 3000 nM,"COc1nc(C2=NOCC(c3ccc(S(C)(=O)=O)cc3)N2)ccc1-n1cnc(C)c1 (single isomer, unassigned; (-)) [Example 217A, (−)-3-(6-methoxy-5-(4-methyl-1H-imidazol-1-yl)pyridin-2-yl)-5-(4-(methylsulfonyl)phenyl)-5,6-dihydro-4H-1,2,4-oxadiazine]"

# Same assay, conditions: compounds 0.003-10 μM, incubated overnight (16-18 h), sandwich ELISA of supernatant
row,EC50,Compound
1,90.5 nM,"COc1nc(C2=NOCC(c3cn(C)c4cc(C(F)(F)F)ccc34)N2)ccc1-n1cnc(C)c1 (single isomer, unassigned; (-)) [Example 197B, (−)-3-(6-methoxy-5-(4-methyl-1H-imidazol-1-yl)pyridin-2-yl)-5-(1-methyl-6-(trifluoromethyl)-1H-indol-3-yl)-5,6-dihydro-4H-1,2,4-oxadiazine]"
2,1290 nM,"COc1nc(C2=NOCC(c3cn(C)c4ccccc34)N2C)ccc1-n1cnc(C)c1 (single isomer, unassigned; (-)) [Example 200B, (−)-3-(6-methoxy-5-(4-methyl-1H-imidazol-1-yl)pyridin-2-yl)-4-methyl-5-(1-methyl-1H-indol-3-yl)-5,6-dihydro-4H-1,2,4-oxadiazine]"
3,2320 nM,"COc1nc(C2=NOCC(c3nc4ccccc4o3)N2)ccc1-n1cnc(C)c1 (single isomer, unassigned; (-)) [Example 203A, (−)-2-(3-(6-methoxy-5-(4-methyl-1H-imidazol-1-yl)pyridin-2-yl)-5,6-dihydro-4H-1,2,4-oxadiazin-5-yl)benzo[d]oxazole]"
4,1730 nM,"COc1nc(C2=NOCC(c3cc4ccccc4n3C)N2)ccc1-n1cnc(C)c1 (single isomer, unassigned; (-)) [Example 205A, (−)-3-(6-methoxy-5-(4-methyl-1H-imidazol-1-yl)pyridin-2-yl)-5-(1-methyl-1H-indol-2-yl)-5,6-dihydro-4H-1,2,4-oxadiazine]"
5,800 nM,"COc1nc(C2=NOCC(c3cn(C)c4ncc(C(F)(F)F)cc34)N2)ccc1-n1cnc(C)c1 (single isomer, unassigned; (-)) [Example 206A, (−)-3-(6-methoxy-5-(4-methyl-1H-imidazol-1-yl)pyridin-2-yl)-5-(1-methyl-5-(trifluoromethyl)-1H-pyrrolo [2,3-b]pyridin-3-yl)-5,6-dihydro-4H-1,2,4-oxadiazine]"
6,> 3000 nM,"COc1nc(C2=NOCC(c3nc4ccccc4s3)N2)ccc1-n1cnc(C)c1 (single isomer, unassigned; (-)) [Example 208A, (−)-5-(benzo[d]thiazol-2-yl)-3-(6-methoxy-5-(4-methyl-1H-imidazol-1-yl)pyridin-2-yl)-5,6-dihydro-4H-1,2,4-oxadiazine]"
7,> 3000 nM,"COc1cc(C2=NOCC(c3nc4cccc(C)c4o3)N2C)ccc1-n1cnc(C)c1 (single isomer, unassigned; (-)) [Example 212B, (−)-2-(3-(3-methoxy-4-(4-methyl-1H-imidazol-1-yl)phenyl)-4-methyl-5,6-dihydro-4H-1,2,4-oxadiazin-5-yl)-7-methylbenzo[d]oxazole]"
8,> 3000 nM,"COc1nc(C2=NOCC(c3cccc(S(C)(=O)=O)c3)N2)ccc1-n1cnc(C)c1 (single isomer, unassigned; (-)) [Example 214A, (−)-3-(6-methoxy-5-(4-methyl-1H-imidazol-1-yl)pyridin-2-yl)-5-(3-(methylsulfonyl)phenyl)-5,6-dihydro-4H-1,2,4-oxadiazine]"
9,2210 nM,"COc1nc(C2=NOCC(c3ccc4sc(C)nc4c3)N2)ccc1-n1cnc(C)c1 (single isomer, unassigned; (-)) [Example 215A, (−)-3-(6-methoxy-5-(4-methyl-1H-imidazol-1-yl)pyridin-2-yl)-5-(2-methylbenzo[d]thiazol-5-yl)-5,6-dihydro-4H-1,2,4-oxadiazine]"
10,89.5 nM,"COc1nc(C2=NOCC(c3cn(C)c4cc(F)c(Cl)cc34)N2)ccc1-n1cnc(C)c1 (single isomer, unassigned; (-)) [Example 216A, (−)-5-(5-chloro-6-fluoro-1-methyl-1H-indol-3-yl)-3-(6-methoxy-5-(4-methyl-1H-imidazol-1-yl)pyridin-2-yl)-5,6-dihydro-4H-1,2,4-oxadiazine]"
11,1010 nM,"COc1nc(C2=NOCC(c3ccc(C)c(Cl)c3)N2)ccc1-n1cnc(C)c1 (single isomer, unassigned; (-)) [Example 218A, (−)-5-(3-chloro-4-methylphenyl)-3-(6-methoxy-5-(4-methyl-1H-imidazol-1-yl)pyridin-2-yl)-5,6-dihydro-4H-1,2,4-oxadiazine]"
12,194 nM,"COc1nc(C2=NOCC(c3cn(C(C)C)c4cc(F)ccc34)N2)ccc1-n1cnc(C)c1 (single isomer, unassigned; (-)) [Example 219B, (−)-5-(6-fluoro-1-isopropyl-1H-indol-3-yl)-3-(6-methoxy-5-(4-methyl-1H-imidazol-1-yl)pyridin-2-yl)-5,6-dihydro-4H-1,2,4-oxadiazine]"
13,102 nM,"COc1nc(C2=NOCC(c3cn(C)c4ccc(F)c(F)c34)N2)ccc1-n1cnc(C)c1 (single isomer, unassigned; (-)) [Example 220A, (−)-5-(4,5-difluoro-1-methyl-1H-indol-3-yl)-3-(6-methoxy-5-(4-methyl-1H-imidazol-1-yl)pyridin-2-yl)-5,6-dihydro-4H-1,2,4-oxadiazine]"
14,59.9 nM,"COc1nc(C2=NOCC(c3cn(C)c4ccc(C5CC5)cc34)N2)ccc1-n1cnc(C)c1 (single isomer, unassigned; (-)) [Example 221A, (−)-5-(5-cyclopropyl-1-methyl-1H-indol-3-yl)-3-(6-methoxy-5-(4-methyl-1H-imidazol-1-yl)pyridin-2-yl)-5,6-dihydro-4H-1,2,4-oxadiazine]"
15,68.6 nM,"COc1nc(C2=NOCC(c3cn(C4CC4)c4cccc(F)c34)N2)ccc1-n1cnc(C)c1 (single isomer, unassigned; (-)) [Example 222B, (−)-5-(1-cyclopropyl-4-fluoro-1H-indol-3-yl)-3-(6-methoxy-5-(4-methyl-1H-imidazol-1-yl)pyridin-2-yl)-5,6-dihydro-4H-1,2,4-oxadiazine]"
16,130 nM,"COc1nc(C2=NOCC(c3cn(C)c4cc(F)c(F)cc34)N2)ccc1-n1cnc(C)c1 (single isomer, unassigned; (-)) [Example 223A, (−)-5-(5,6-difluoro-1-methyl-1H-indol-3-yl)-3-(6-methoxy-5-(4-methyl-1H-imidazol-1-yl)pyridin-2-yl)-5,6-dihydro-4H-1,2,4-oxadiazine]"
17,> 3000 nM,"COc1nc(C2=NOCC(c3ccc4ncccc4c3)N2)ccc1-n1cnc(C)c1 (single isomer, unassigned; (-)) [Example 224A, (−)-3-(6-methoxy-5-(4-methyl-1H-imidazol-1-yl)pyridin-2-yl)-5-(quinolin-6-yl)-5,6-dihydro-4H-1,2,4-oxadiazine]"
18,> 3000 nM,"COc1nc(C2=NOCC(c3ccc4c(c3)OC(F)(F)O4)N2)ccc1-n1cnc(C)c1 (single isomer, unassigned; (-)) [Example 225A]"
19,71.4 nM,"COc1nc(C2=NOCC(c3cn(C)c4cc(F)cc(F)c34)N2)ccc1-n1cnc(C)c1 (single isomer, unassigned; (-)) [Example 226B, (−)-5-(4,6-difluoro-1-methyl-1H-indol-3-yl)-3-(6-methoxy-5-(4-methyl-1H-imidazol-1-yl)pyridin-2-yl)-5,6-dihydro-4H-1,2,4-oxadiazine]"
20,958 nM,"COc1nc(C2=NOCC(c3ccc(C)cc3)N2)ccc1-n1cnc(C)c1 (single isomer, unassigned; (-)) [Example 227A, (−)-3-(6-methoxy-5-(4-methyl-1H-imidazol-1-yl)pyridin-2-yl)-5-(p-tolyl)-5,6-dihydro-4H-1,2,4-oxadiazine]"
21,262 nM,"COc1nc(C2=NOCC(c3cn(C4CC4)c4cc(F)ccc34)N2)ccc1-n1cnc(C)c1 (single isomer, unassigned; (-)) [Example 228A, (−)-5-(1-cyclopropyl-6-fluoro-1H-indol-3-yl)-3-(6-methoxy-5-(4-methyl-1H-imidazol-1-yl)pyridin-2-yl)-5,6-dihydro-4H-1,2,4-oxadiazine]"
22,24.4 nM,"COc1nc(C2=NOCC(c3cn(C)c4cccc(Cl)c34)N2)ccc1-n1cnc(C)c1 (single isomer, unassigned; (-)) [Example 229B, (−)-5-(4-chloro-1-methyl-1H-indol-3-yl)-3-(6-methoxy-5-(4-methyl-1H-imidazol-1-yl)pyridin-2-yl)-5,6-dihydro-4H-1,2,4-oxadiazine]"
23,25.2 nM,"COc1nc(C2=NOCC(c3cn(C)c4cccc(C(F)(F)F)c34)N2)ccc1-n1cnc(C)c1 (single isomer, unassigned; (-)) [Example 230B, (−)-3-(6-methoxy-5-(4-methyl-1H-imidazol-1-yl)pyridin-2-yl)-5-(1-methyl-4-(trifluoromethyl)-1H-indol-3-yl)-5,6-dihydro-4H-1,2,4-oxadiazine]"
24,229 nM,"COc1nc(C2=NOCC(c3cn(C)c4c(F)cccc34)N2)ccc1-n1cnc(C)c1 (single isomer, unassigned; (-)) [Example 231A, (−)-5-(7-fluoro-1-methyl-1H-indol-3-yl)-3-(6-methoxy-5-(4-methyl-1H-imidazol-1-yl)pyridin-2-yl)-5,6-dihydro-4H-1,2,4-oxadiazine]"
25,278 nM,"COc1nc(C2=NOCC(c3nn(C)c4ccc(Cl)cc34)N2)ccc1-n1cnc(C)c1 (single isomer, unassigned; (-)) [Example 232A, (−)-5-(5-chloro-1-methyl-1H-indazol-3-yl)-3-(6-methoxy-5-(4-methyl-1H-imidazol-1-yl)pyridin-2-yl)-5,6-dihydro-4H-1,2,4-oxadiazine]"
26,94.5 nM,"COc1nc(C2=NOCC(c3cn(C)c4ccc(C(F)(F)F)cc34)N2)ccc1-n1cnc(C)c1 (single isomer, unassigned; (-)) [Example 233A, (−)-3-(6-methoxy-5-(4-methyl-1H-imidazol-1-yl)pyridin-2-yl)-5-(1-methyl-5-(trifluoromethyl)-1H-indol-3-yl)-5,6-dihydro-4H-1,2,4-oxadiazine]"
